Assay results as given in patent US9539252B2, “Piperazine-substituted benzothiophene derivatives as antipsychotic agents” (OTSUKA PHARMACEUTICAL CO., LTD., priority 2011, dated 2017).

Assay: Solubility in oil (sesame oil, benzyl benzoate), visual observation
Settings: benzyl benzoate, oil or lipid, thermodynamic from solid

| SMILES | solubility [mg/mL] |
| --- | --- |
| CCOC(=O)CCNC(=O)OCn1c(=O)ccc2ccc(OCCCCN3CCN(c4cccc5sccc45)CC3)cc21 [Example 99, 3-{7-[4-(4-benzo[b]thiophen-4-ylpiperazin-1-yl)butoxy]-2-oxo-2H-quinolin-1-ylmethoxycarbonylamino}-propionic acid ethyl ester] | > 100 |
| CCCCCCCCCCCCCCCCC(=O)OCN1C(=O)CCc2ccc(OCCCCN3CCN(c4cccc5sccc45)CC3)cc21 [Example 95, heptadecanoic acid 7-[4-(4-benzo[b]thiophen-4-ylpiperazin-1-yl)butoxy]-2-oxo-3,4-dihydro-2H-quinolin-1-ylmethyl ester] | > 100 |
| O=C(OCn1c(=O)ccc2ccc(OCCCCN3CCN(c4cccc5sccc45)CC3)cc21)c1ccc2occc2c1 [Example 137, benzofuran-5-carboxylic acid 7-[4-(4-benzo[b]thiophen-4-ylpiperazin-1-yl)butoxy]-2-oxo-2H-quinolin-1-ylmethyl ester] | > 100 |
| COC(=O)CN(C)C(=O)OCn1c(=O)ccc2ccc(OCCCCN3CCN(c4cccc5sccc45)CC3)cc21 [Example 73, ({7-[4-(4-benzo[b]thiophen-4-ylpiperazin-1-yl)butoxy]-2-oxo-2H-quinolin-1-ylmethoxycarbonyl}methylamino)acetic acid methyl ester] | > 100 |
| O=C(OCn1c(=O)ccc2ccc(OCCCCN3CCN(c4cccc5sccc45)CC3)cc21)OC1CCCCC1 [Example 146, carbonic acid 7-[4-(4-benzo[b]thiophen-4-ylpiperazin-1-yl)butoxy]-2-oxo-2H-quinolin-1-ylmethyl ester cyclohexyl ester] | > 100 |
| CCCCCCCCCCCCCC(=O)OCn1c(=O)ccc2ccc(OCCCCN3CCN(c4cccc5sccc45)CC3)cc21 [Example 65, tetradecanoic acid 7-[4-(4-benzo[b]thiophen-4-ylpiperazin-1-yl)butoxy]-2-oxo-2H-quinolin-1-ylmethyl ester] | > 100 |
| CCCCCCCCCCCCCCCCCCCC(=O)OCN1C(=O)CCc2ccc(OCCCCN3CCN(c4cccc5sccc45)CC3)cc21 [Example 31, icosanoic acid 7-[4-(4-benzo[b]thiophen-4-ylpiperazin-1-yl)butoxy]-2-oxo-3,4-dihydro-2H-quinolin-1-ylmethyl ester] | > 100 |
| CCCCCCCCCCCCCCCCCCCC(=O)OCn1c(=O)ccc2ccc(OCCCCN3CCN(c4cccc5sccc45)CC3)cc21 [Example 41, icosanoic acid 7-[4-(4-benzo[b]thiophen-4-ylpiperazin-1-yl)butoxy]-2-oxo-2H-quinolin-1-ylmethyl ester] | > 100 |
| CCCOC(=O)OCn1c(=O)ccc2ccc(OCCCCN3CCN(c4cccc5sccc45)CC3)cc21 [Example 165, carbonic acid 7-[4-(4-benzo[b]thiophen-4-ylpiperazin-1-yl)butoxy]-2-oxo-2H-quinolin-1-ylmethyl ester propyl ester] | > 100 |
| CCCCCCCCCCNC(=O)OCN1C(=O)CC(C)(C)c2ccc(OCCCCN3CCN(c4cccc5sccc45)CC3)cc21 [Example 158, N-decylcarbamic acid 7-[4-(4-benzo[b]thiophen-4-ylpiperazin-1-yl)-butoxy]-4,4-dimethyl-2-oxo-3,4-dihydro-2H-quinolin-1-ylmethyl ester] | > 100 |
| CCN(CC)C(=O)OCN1C(=O)CCc2ccc(OCCCCN3CCN(c4cccc5sccc45)CC3)cc21 [Example 52, N,N-diethylcarbamic acid 7-[4-(4-benzo[b]thiophen-4-ylpiperazin-1-yl)butoxy]-2-oxo-3,4-dihydro-2H-quinolin-1-ylmethyl ester] | > 100 |
| O=C(OCN1C(=O)CCc2ccc(OCCCCN3CCN(c4cccc5sccc45)CC3)cc21)c1cccs1 [Example 131, thiophene-2-carboxylic acid 7-[4-(4-benzo[b]thiophen-4-ylpiperazin-1-yl)butoxy]-2-oxo-3,4-dihydro-2H-quinolin-1-ylmethyl ester] | > 100 |
| CCCCC(C)C(=O)OCN1C(=O)CCc2ccc(OCCCCN3CCN(c4cccc5sccc45)CC3)cc21 (centres unmarked) [Example 78, 2-methylhexanoic acid 7-[4-(4-benzo[b]thiophen-4-ylpiperazin-1-yl)butoxy]-2-oxo-3,4-dihydro-2H-quinolin-1-ylmethyl ester] | > 100 |
| O=C(NCc1ccccc1)OCn1c(=O)ccc2ccc(OCCCCN3CCN(c4cccc5sccc45)CC3)cc21 [Example 62, N-benzylcarbamic acid 7-[4-(4-benzo[b]thiophen-4-ylpiperazin-1-yl)butoxy]-2-oxo-2H-quinolin-1-ylmethyl ester] | > 100 |
| CCCCCCCOC(=O)OCN1C(=O)CCc2ccc(OCCCCN3CCN(c4cccc5sccc45)CC3)cc21 [Example 145, carbonic acid 7-[4-(4-benzo[b]thiophen-4-ylpiperazin-1-yl)butoxy]-2-oxo-3,4-dihydro-2H-quinolin-1-ylmethyl ester heptyl ester] | > 100 |
| CC(C)COC(=O)OCn1c(=O)ccc2ccc(OCCCCN3CCN(c4cccc5sccc45)CC3)cc21 [Example 170, carbonic acid 7-[4-(4-benzo[b]thiophen-4-ylpiperazin-1-yl)butoxy]-2-oxo-2H-quinolin-1-ylmethyl ester isobutyl ester] | > 100 |

| SMILES | solubility [mg/mL] |
| --- | --- |
| O=C(NOCc1ccccc1)OCN1C(=O)CCc2ccc(OCCCCN3CCN(c4cccc5sccc45)CC3)cc21 [Example 107, benzyloxycarbamic acid 7-[4-(4-benzo[b]thiophen-4-ylpiperazin-1-yl)butoxy]-2-oxo-3,4-dihydro-2H-quinolin-1-ylmethyl ester] | > 100 |
| COC(=O)CN(C)C(=O)OCN1C(=O)CCc2ccc(OCCCCN3CCN(c4cccc5sccc45)CC3)cc21 [Example 90, ({7-[4-(4-benzo[b]thiophen-4-ylpiperazin-1-yl)butoxy]-2-oxo-3,4-dihydro-2H-quinolin-1-ylmethoxycarbonyl}methylamino)acetic acid methyl ester] | > 100 |
| CCCCOCCOCC(=O)OCN1C(=O)CCc2ccc(OCCCCN3CCN(c4cccc5sccc45)CC3)cc21 [Example 100, (2-butoxyethoxy)acetic acid 7-[4-(4-benzo[b]thiophen-4-ylpiperazin-1-yl)butoxy]-2-oxo-3,4-dihydro-2H-quinolin-1-ylmethyl ester] | > 100 |
| CCCCCCOC(=O)OCn1c(=O)ccc2ccc(OCCCCN3CCN(c4cccc5sccc45)CC3)cc21 [Example 175, carbonic acid 7-[4-(4-benzo[b]thiophen-4-ylpiperazin-1-yl)butoxy]-2-oxo-2H-quinolin-1-ylmethyl ester hexyl ester] | > 100 |
| CCCCCCCCCCCCCCCCOC(=O)OCn1c(=O)ccc2ccc(OCCCCN3CCN(c4cccc5sccc45)CC3)cc21 [Example 180, carbonic acid 7-[4-(4-benzo[b]thiophen-4-ylpiperazin-1-yl)butoxy]-2-oxo-2H-quinolin-1-ylmethyl ester hexadecyl ester] | > 100 |
| CCCCCCCCCCCCCCCCCCN(C)C(=O)OCN1C(=O)CCc2ccc(OCCCCN3CCN(c4cccc5sccc45)CC3)cc21 [Example 79, N-methyl-N-octadecylcarbamic acid 7-[4-(4-benzo[b]thiophen-4-ylpiperazin-1-yl)butoxy]-2-oxo-3,4-dihydro-2H-quinolin-1-ylmethyl ester] | > 100 |
| O=C(OCn1c(=O)ccc2ccc(OCCCCN3CCN(c4cccc5sccc45)CC3)cc21)N1CCC(F)(F)CC1 [Example 123, 4,4-difluoropiperidine-1-carboxylic acid 7-[4-(4-benzo[b]thiophen-4-ylpiperazin-1-yl)butoxy]-2-oxo-2H-quinolin-1-ylmethyl ester] | > 100 |
| O=C(OCN1C(=O)CCc2ccc(OCCCCN3CCN(c4cccc5sccc45)CC3)cc21)OCC(F)(F)F [Example 147, carbonic acid 7-[4-(4-benzo[b]thiophen-4-ylpiperazin-1-yl)butoxy]-2-oxo-3,4-dihydro-2H-quinolin-1-ylmethyl ester 2,2,2-trifluoro-ethyl ester] | > 100 |
| CCN(CC)C(=O)Oc1ccc2ccc(OCCCCN3CCN(c4cccc5sccc45)CC3)cc2n1 [Example 382, 7-[4-(4-benzo[b]thiophen-4-yl-piperazin-1-yl)-butoxy]-quinolin-2-yl diethylcarbamate] | > 100 |
| CN(C)C(=O)OCN1C(=O)CCc2ccc(OCCCCN3CCN(c4cccc5sccc45)CC3)cc21 [Example 47, N,N-dimethylcarbamic acid 7-[4-(4-benzo[b]thiophen-4-ylpiperazin-1-yl)butoxy]-2-oxo-3,4-dihydro-2H-quinolin-1-ylmethyl ester] | > 100 |
| CCOC(=O)OCN1C(=O)CCc2ccc(OCCCCN3CCN(c4cccc5sccc45)CC3)cc21 [Example 49, carbonic acid 7-[4-(4-benzo[b]thiophen-4-ylpiperazin-1-yl)butoxy]-2-oxo-3,4-dihydro-2H-quinolin-1-ylmethyl ester ethyl ester] | > 100 |
| O=C(NCc1ccccc1)OCN1C(=O)CCc2ccc(OCCCCN3CCN(c4cccc5sccc45)CC3)cc21 [Example 80, N-benzylcarbamic acid 7-[4-(4-benzo[b]thiophen-4-ylpiperazin-1-yl)butoxy]-2-oxo-3,4-dihydro-2H-quinolin-1-ylmethyl ester] | > 100 |
| CC(C)NC(=O)OCn1c(=O)ccc2ccc(OCCCCN3CCN(c4cccc5sccc45)CC3)cc21 [Example 117, N-isopropyl-carbamic acid 7-[4-(4-benzo[b]thiophen-4-ylpiperazin-1-yl)butoxy]-2-oxo-2H-quinolin-1-ylmethyl ester] | > 100 |
| O=C(OCN1C(=O)CCc2ccc(OCCCCN3CCN(c4cccc5sccc45)CC3)cc21)C1CCOCC1 [Example 120, tetrahydropyran-4-carboxylic acid 7-[4-(4-benzo[b]thiophen-4-ylpiperazin-1-yl)butoxy]-2-oxo-3,4-dihydro-2H-quinolin-1-ylmethyl ester] | > 100 |
| O=C(NCc1ccco1)OCn1c(=O)ccc2ccc(OCCCCN3CCN(c4cccc5sccc45)CC3)cc21 [Example 110] | > 100 |

Same assay, conditions: sesame oil, oil or lipid, thermodynamic from solid

| SMILES | solubility [mg/mL] |
| --- | --- |
| CCCCCCCCCCNC(=O)OCN1C(=O)CC(C)(C)c2ccc(OCCCCN3CCN(c4cccc5sccc45)CC3)cc21 [Example 158, N-decylcarbamic acid 7-[4-(4-benzo[b]thiophen-4-ylpiperazin-1-yl)-butoxy]-4,4-dimethyl-2-oxo-3,4-dihydro-2H-quinolin-1-ylmethyl ester] | > 100 |
| CCN(CC)C(=O)OCN1C(=O)CCc2ccc(OCCCCN3CCN(c4cccc5sccc45)CC3)cc21 [Example 52, N,N-diethylcarbamic acid 7-[4-(4-benzo[b]thiophen-4-ylpiperazin-1-yl)butoxy]-2-oxo-3,4-dihydro-2H-quinolin-1-ylmethyl ester] | > 100 |
| CCCCCCCCCCCCCCCCOC(=O)OCn1c(=O)ccc2ccc(OCCCCN3CCN(c4cccc5sccc45)CC3)cc21 [Example 180, carbonic acid 7-[4-(4-benzo[b]thiophen-4-ylpiperazin-1-yl)butoxy]-2-oxo-2H-quinolin-1-ylmethyl ester hexadecyl ester] | > 100 |
| CCCCCCCCCCCCCCCCCCN(C)C(=O)OCN1C(=O)CCc2ccc(OCCCCN3CCN(c4cccc5sccc45)CC3)cc21 [Example 79, N-methyl-N-octadecylcarbamic acid 7-[4-(4-benzo[b]thiophen-4-ylpiperazin-1-yl)butoxy]-2-oxo-3,4-dihydro-2H-quinolin-1-ylmethyl ester] | > 100 |
